From US8592161B2, “Mutational profiles in HIV-1 protease correlated with phenotypic drug resistance” (Janssen R&D Ireland, priority 2002, dated 2013)

What was measured:
Type in all cases: cell-based
[1] = system: HIV-1/LAI strain selected with Comp 1 (200 nM, 328 days), protease S37N R41S K70E; assay: In vitro antiviral activity in acutely infected MT4 cells, selected strain; settings: for EC50: Human immunodeficiency virus 1, Table 2, strain S37N R41S K70E (Comp 1 200 nM, 328 days), read-out: median EC50; for median FC (fold change in EC50 as compared to wild type): Table 2, strain S37N R41S K70E (Comp 1 200 nM, 328 days)
Procedure: (§1) Determination of the antiviral activity of a compound was done as described in Pauwels R. et al. (J Virol Methods 1988; 20(4):309-21). Various concentrations of the test compounds were brought into each well of a flat-bottom microtiter plate. Subsequently, HIV and MT4 cells were added to a final concentration of 200-250 50% cell culture infectious doses (CCID50)/well and 30,000 cells/well, respectively. After 5 days of incubation (37° C., 5% CO2), the cytopathic effect of the replicating virus was determined by the tetrazolium colorimetric MTT method. The dose protecting 50% of the cells from virus cytopathic effect was defined as the EC50, while the dose achieving 90% protection was defined as the EC90.
(§2) MT4-LTR-EGFP cells were infected at a multiplicity of infection (MOI) of 0.01 to 0.001 CCID50/cell in the presence of inhibitor. The starting concentration of the inhibitor was two to tee times the EC50, a suboptimal concentration. The cultures were sub-cultivated and scored microscopically on virus-induced fluorescence and cytopathicity every 3-4 days. The cultures were sub-cultivated in the presence of the same compound concentration until signs of virus replication were observed. The escaping virus was further cultivated in the presence of the same inhibitor concentration in order to enrich the population in resistant variants. If full virus breakthrough was observed the supernatant was collected and stored (new virus strain). Afterwards, the same virus was challenged with a higher compound concentration in order to select variants able to grow in the presence of as high as possible inhibitor concentrations. From the new viruses, a virus stock was grown in the absence of inhibitor.
(§3) In vitro drug selection experiments starting from wild-type HIV-1 under pressure of compound 1, compound 2, and Nelfinavir (NFV) have been performed. Tables 1, 2, 3, 4, and 5 show the genotypic and phenotypic characterization of the selected strains.

[2] = system: HIV-1/LAI strain selected with Compound 2 (100 nM), protease R41I; Table 3; assay: as above; settings: Human immunodeficiency virus 1, R41I strain selected with Compound 2 100 nM (head lists 116, 200, 264 days; assignment unclear), read-out: median EC50
Procedure: as §1, §2, §3

[3] = system: HIV-1 strain selected with Comp 1 (40 nM, 175 days), protease R41G V82I; assay: as above; settings: for EC50: Human immunodeficiency virus 1, Table 4, strain R41G V82I (Comp 1 40 nM, 175 days), read-out: median EC50; for median FC (fold change in EC50 as compared to wild type): Table 4, strain R41G V82I (Comp 1 40 nM, 175 days)
Procedure: as §1, §2, §3

[4] = system: HIV-1/LAI strain selected with Comp 1 (100 nM, 139 days), protease S37S/N R41R/K K70E; assay: as above; settings: for EC50: Human immunodeficiency virus 1, Table 2, strain S37S/N R41R/K K70E (Comp 1 100 nM, 139 days), read-out: median EC50; for median FC (fold change in EC50 as compared to wild type): Table 2, strain S37S/N R41R/K K70E (Comp 1 100 nM, 139 days)
Procedure: as §1, §2, §3

[5] = system: HIV-1/LAI strain selected with Compound 1 (30 nM, 45 days), protease R41T; assay: as above; settings: for EC50: Human immunodeficiency virus 1, Table 1, strain R41T (Compound 1 30 nM, 45 days), read-out: median EC50; for median FC (fold change in EC50 as compared to wild type): Table 1, strain R41T (Compound 1 30 nM, 45 days)
Procedure: as §1, §2, §3

[6] = system: HIV-1/LAI strain selected with NFV (9000 nM, 140 days), protease L10F D30N R41R/K K45I/K M46I V77I I84V N88D; assay: as above; settings: for EC50: Human immunodeficiency virus 1, Table 5, strain L10F D30N R41R/K K45I/K M46I V77I I84V N88D (NFV 9000 nM, 140 days), read-out: median EC50; for median FC (fold change in EC50 as compared to wild type): Table 5, strain L10F D30N R41R/K K45I/K M46I V77I I84V N88D (NFV 9000 nM, 140 days)
Procedure: as §1, §2, §3

[7] = system: HIV-1/LAI strain selected with Compound 1 (100 nM, 188 days), protease R41T K70E; assay: as above; settings: for EC50: Human immunodeficiency virus 1, Table 1, strain R41T K70E (Compound 1 100 nM, 188 days), read-out: median EC50; for median FC (fold change in EC50 as compared to wild type): Table 1, strain R41T K70E (Compound 1 100 nM, 188 days)
Procedure: as §1, §2, §3

[8] = system: HIV-1/LAI strain selected with Comp 1 (30 nM, 70 days), protease K70E; assay: as above; settings: for EC50: Human immunodeficiency virus 1, Table 2, strain K70E (Comp 1 30 nM, 70 days), read-out: median EC50; for median FC (fold change in EC50 as compared to wild type): Table 2, strain K70E (Comp 1 30 nM, 70 days)
Procedure: as §1, §2, §3

[9] = system: HIV-1 strain selected with Comp 1 (20 nM, 94 days), protease R41G/R V82V/I; assay: as above; settings: for EC50: Human immunodeficiency virus 1, Table 4, strain R41G/R V82V/I (Comp 1 20 nM, 94 days), read-out: median EC50; for median FC (fold change in EC50 as compared to wild type): Table 4, strain R41G/R V82V/I (Comp 1 20 nM, 94 days)
Procedure: as §1, §2, §3

[10] = system: HIV-1/LAI strain selected with NFV (1000 nM, 35 days), protease D30N M46I; assay: as above; settings: for EC50: Human immunodeficiency virus 1, Table 5, strain D30N M46I (NFV 1000 nM, 35 days), read-out: median EC50; for median FC (fold change in EC50 as compared to wild type): Table 5, strain D30N M46I (NFV 1000 nM, 35 days)
Procedure: as §1, §2, §3

[11] = system: HIV-1/LAI strain selected with Comp 1 (100 nM, 195 days), protease S37N R41S K70E; assay: as above; settings: for EC50: Human immunodeficiency virus 1, Table 2, strain S37N R41S K70E (Comp 1 100 nM, 195 days), read-out: median EC50; for median FC (fold change in EC50 as compared to wild type): Table 2, strain S37N R41S K70E (Comp 1 100 nM, 195 days)
Procedure: as §1, §2, §3

[12] = system: HIV-1/LAI strain selected with NFV (9000 nM, 11l days), protease L10F D30N R41R/K K45I/K M46I V77I I84V/I I85V/I N88D; assay: as above; settings: for EC50: Human immunodeficiency virus 1, Table 5, strain L10F D30N R41R/K K45I/K M46I V77I I84V/I I85V/I N88D (NFV 9000 nM, 11l days), read-out: median EC50; for median FC (fold change in EC50 as compared to wild type): Table 5, strain L10F D30N R41R/K K45I/K M46I V77I I84V/I I85V/I N88D (NFV 9000 nM, 11l days)
Procedure: as §1, §2, §3

[13] = system: HIV-1 strain selected with Comp 1 (40 nM, 161 days), protease R41G V82I; assay: as above; settings: for EC50: Human immunodeficiency virus 1, Table 4, strain R41G V82I (Comp 1 40 nM, 161 days), read-out: median EC50; for median FC (fold change in EC50 as compared to wild type): Table 4, strain R41G V82I (Comp 1 40 nM, 161 days)
Procedure: as §1, §2, §3

[14] = system: HIV-1 starting strain of Table 4 (no compound, no mutations); assay: In vitro antiviral activity in acutely infected MT4 cells, starting strain; settings: for EC50: Human immunodeficiency virus 1, starting strain HIV-1, no compound, read-out: median EC50; for median FC (fold change in EC50 as compared to wild type): starting strain HIV-1, no compound
Procedure: as §1, §2, §3

Row | Structure (SMILES) | EC50 [1] [nM] | median FC (fold change in EC50 as compared to wild type) [1] | EC50 [3] [nM] | median FC (fold change in EC50 as compared to wild type) [3] | EC50 [4] [nM] | median FC (fold change in EC50 as compared to wild type) [4] | EC50 [5] [nM] | median FC (fold change in EC50 as compared to wild type) [5] | EC50 [6] [nM] | median FC (fold change in EC50 as compared to wild type) [6] | EC50 [7] [nM] | median FC (fold change in EC50 as compared to wild type) [7] | EC50 [8] [nM] | median FC (fold change in EC50 as compared to wild type) [8] | EC50 [9] [nM] | median FC (fold change in EC50 as compared to wild type) [9] | EC50 [10] [nM] | median FC (fold change in EC50 as compared to wild type) [10] | EC50 [11] [nM] | median FC (fold change in EC50 as compared to wild type) [11] | further results
1 | CC(C)(C)NC(=O)[C@@H]1CN(Cc2cccnc2)CCN1C[C@@H](O)C[C@@H](Cc1ccccc1)C(=O)N[C@H]1c2ccccc2C[C@H]1O [Indinavir] | 5.5 | 0.5 | 3.9 | 0 | 6.3 | 1 | 33 | 1 | 28 | 2 | 140 | 5 | 18 | 2 | 3.1 | 0 | 7.9 | 1 | 9.1 | 1 | EC50 [2]: 19 nM; EC50 [12]: 100 nM; median FC (fold change in EC50 as compared to wild type) [12]: 8; EC50 [13]: 2.1 nM; median FC (fold change in EC50 as compared to wild type) [13]: 0; EC50 [14]: 2.4 nM; median FC (fold change in EC50 as compared to wild type) [14]: 0
2 | CC(C)(C)NC(=O)[C@@H]1C[C@@H]2CCCC[C@@H]2CN1C[C@@H](O)[C@H](Cc1ccccc1)NC(=O)[C@H](CC(N)=O)NC(=O)c1ccc2ccccc2n1 [Saquinavir] | 4 | 1 | 0.8 | 0 | 0.7 | 0.1 | 30 | 4 | 34 | 6 | 150 | 20 | 6 | 1 | 0.9 | 0 | 1.8 | 0 | 0.9 | 0.2 | EC50 [12]: 15 nM; median FC (fold change in EC50 as compared to wild type) [12]: 3; EC50 [13]: 1 nM; median FC (fold change in EC50 as compared to wild type) [13]: 0; EC50 [14]: 8.9 nM; median FC (fold change in EC50 as compared to wild type) [14]: 2
3 | CC(C)CN(C[C@@H](O)[C@H](Cc1ccccc1)NC(=O)O[C@H]1CCOC1)S(=O)(=O)c1ccc(N)cc1 [Amprenavir] | 15 | 1 | 9.4 | 0 | 24 | 1 | 38 | 1 | 190 | 10 | 39 | 1 | 56 | 3 | 7.3 | 0 | 28 | 1 | 14 | 1 | EC50 [2]: 14 nM; EC50 [12]: 95 nM; median FC (fold change in EC50 as compared to wild type) [12]: 5; EC50 [13]: 6.6 nM; median FC (fold change in EC50 as compared to wild type) [13]: 0; EC50 [14]: 26 nM; median FC (fold change in EC50 as compared to wild type) [14]: 1
4 | Cc1c(O)cccc1C(=O)N[C@@H](CSc1ccccc1)[C@H](O)CN1C[C@H]2CCCC[C@H]2C[C@H]1C(=O)NC(C)(C)C [Nelfinavir] | 1.9 | 0.1 | 16 | 0 | 9.7 | 0.3 | 32 | 1 | 6800 | 200 | 37 | 1 | 39 | 1 | 5.7 | 0 | 330 | 9 | 9.5 | 0.3 | EC50 [2]: 16 nM; EC50 [12]: 7200 nM; median FC (fold change in EC50 as compared to wild type) [12]: 200; EC50 [13]: 11 nM; median FC (fold change in EC50 as compared to wild type) [13]: 0; EC50 [14]: 31 nM; median FC (fold change in EC50 as compared to wild type) [14]: 1
